Assay results: paper PMC9604662, “New Ceramides and Cerebrosides from the Deep-Sea Far Eastern Starfish Ceramaster patagonicus” (Marine Drugs, 2022)

Legend:
[1] = tested on: human normal embryonic kidney cells HEK293; assay: MTS cell viability assay, HEK293; type: cell-based; settings: 24 h exposure, mean ± SD, read-out: Half Maximal Inhibitory Concentration (IC50) HEK293
Experimental: (§1) In the present study, the cytotoxic activity of compounds 1–3, 5–7, and 9 against human normal embryonic kidney cells HEK293 and a panel of human cancer cells HT-29, SK-MEL-28, and MDA-MB-231 was measured by the MTS assay after 24 h of exposure. Different concentrations of doxorubicin (10, 50, and 100 µM), used as a positive control, and compounds 1–3, 5–7, and 9 (1, 10, and 50 µM) were studied.
(§2) The human embryonic kidney cells HEK293 (ATCC® CRL-1573™), the colorectal adenocarcinoma cell line HT-29 (ATCC® HTB-38), the melanoma SK-MEL-28 (ATCC® HTB-72™), and breast adenocarcinoma MDA-MB-231 (ATCC® HTB-26™) cell lines were obtained from the American Type Culture Collection (Manassas, VA, USA).
(§3) HT 29 cells were cultured in McCoy’s 5A medium; HEK293, SK-MEL-28, and MDA-MB-231 cell lines were maintained in the DMEM medium. The culture media were supplemented with 10% FBS and a 1% penicillin/streptomycin solution. The cell cultures were maintained at 37 °C in a humidified atmosphere containing 5% CO2.
(§4) Compounds 1–3, 5–7, and 9 were dissolved in a sterile dimethyl sulfoxide solution (DMSO) to prepare stock concentrations of 20 mM. Cells were exposed to serially diluted 1–3, 5–7, and 9 (1–100 µM) (with the culture medium used as a diluent) (the final concentration of DMSO was less than 0.5%).
(§5) Doxorubicin (Doxo) (Teva Pharmaceutical Industries, Ltd. (Israel)) was dissolved in sterile PBS to prepare stock concentrations of 10 mM. Cells were exposed to serially diluted Doxo (10–100 µM) (with the culture medium used as a diluent).
(§6) The effect of compounds 1–3, 5–7, and 9 on the viability of tested cell lines was evaluated by the MTS assay. HEK293 (1.0 × 10^4/200 µL), HT-29 (1.0 × 10^4/200 µL), SK-MEL-28 (0.8 × 10^4/200 µL), and MDA-MB-231 (1.0 × 10^4/200 µL) cells were seeded on a 96-well plate and incubated for 24 h at 37°C in a CO2 incubator. The cells were exposed to either DMSO (vehicle control) or Doxo at concentrations of […] (positive control) or 1–3, 5–7, and 9 at concentrations of 1, 10, and 50 µM for 24 h. The cells were subsequently incubated with 15 µL MTS reagent for 3 h, and the absorbance of each well was measured at 490/630 nm on a Power Wave XS microplate reader (BioTek, Winooski, VT, USA). The concentration at which a compound exerted half of its maximal inhibitory effect on cell viability (IC50) was calculated using the AAT-Bioquest® online calculator [27].

[2] = tested on: colorectal adenocarcinoma cell line HT-29; assay: MTS cell viability assay, HT-29; type: cell-based; settings: Homo sapiens, 24 h exposure, mean ± SD, read-out: Half Maximal Inhibitory Concentration (IC50) HT-29
Experimental: as §1, §2, §3, §4, §5, §6

[3] = tested on: melanoma SK-MEL-28 cells; assay: MTS cell viability assay, SK-MEL-28; type: cell-based; settings: Homo sapiens, 24 h exposure, mean ± SD, read-out: Half Maximal Inhibitory Concentration (IC50) SK-MEL-28
Experimental: as §1, §2, §3, §4, §5, §6

[4] = tested on: breast adenocarcinoma MDA-MB-231 cells; assay: MTS cell viability assay, MDA-MB-231; type: cell-based, human; settings: for IC50: Homo sapiens, MDA-MB-231, MTS assay, 24 h exposure, mean ± SD, read-out: Half Maximal Inhibitory Concentration (IC50) MDA-MB-231; for cytotoxic activity against MDA-MB-231 cells (in words): concentrations of up to 50 µM, MTS, 24 h
Experimental: as §1, §2, §3, §4, §5, §6

[5] = tested on: human breast cancer cells MDA-MB-231; assay: Soft agar colony formation assay; type: cell-based; settings: MDA-MB-231, 336 h, 14 days of incubation, read-out: inhibition of colony formation (decrease in number of colonies) of MDA-MB-231 cells
Description: Since compounds 1–3, 5–7, and 9 inhibited the viability of breast cancer cells MDA-MB-231, we then tested their ability to inhibit colony formation of MDA-MB-231 cells using the soft agar assay. The colony formation assay, also referred to as soft agar assay, allows for screening the therapeutic efficacy of compounds for anchorage-independent cell growth, which is one of the hallmark characteristics of cellular transformation and uncontrolled growth of cancer cells.
Figure 4 The effect of compounds 1–3, 5–7, and 9 on colony formation of human breast cancer cells MDA-MB-231 (2.4 × 10^4) that were exposed to PBS (control), Doxo (5, 10, and 20 µM), or the compounds under study (5, 10, and 20 µM) and placed on dishes with 0.3% Basal Medium Eagle (BME) agar containing 10% fetal bovine serum FBS, 2 mM L-glutamine, and 25 µg/mL gentamicin. After 14 days of incubation, the number of colonies was counted under a microscope using the ImageJ software program.
MDA-MB-231 cells (2.4 × 10^4/mL) were exposed to either DMSO (vehicle control) or Doxo (positive control) at concentrations of 5, 10, and 20 µM, and to 1–3, 5–7, and 9 at concentrations of 5, 10, 20 µM. Then, the cells were applied on dishes with 0.3% BME agar containing 10% FBS, 2 mM L-glutamine, and 25 µg/mL gentamicin. The cultures were maintained at 37°C in a 5% CO2 incubator for 14 days. The number and size of the colonies were estimated under a Motic microscope AE 20 and using the ImageJ software bundled with 64-bit Java 1.8.0_112 (NIH, Bethesda, Maryland, USA).

[6] = tested on: murine leukemic cells L1210; parameters: method as in doi:10.1021/jo00080a023, PMID 12192142; settings: at a concentration of 2 μM; ref [21],[28]; cited from earlier work
[7] = tested on: a number of human cancer cell lines; parameters: method as in doi:10.1021/jo00080a023, PMID 12192142; settings: at concentrations of 15–34 μM; ref [21],[28]; cited from earlier work

Row | SMILES | IC50 [1] | IC50 [2] | IC50 [3] | IC50 [4] | cytotoxic activity against MDA-MB-231 cells (in words) [4] | inhibition at 20 µM [5] | cytotoxic activity against murine leukemic cells L1210 (in words) [6] | cytotoxic activity against a number of human cancer cell lines (in words) [7]
1 | CCCCCCCCCCCCCC[C@@H](O)C(=O)N[C@@H](CO)[C@H](O)[C@H](O)CCCC/C=C\CCCCCCCCC(C)C [Compound 1, (2S,3S,4R,9Z)-2-[(2R)-2-hydroxyhexadecanoylamino]-19-methyl-9-icosen-1,3,4-triol] | > 50 µM | > 50 µM | > 50 µM | > 50 µM | slight cytotoxic activity | 46% | – | –
2 | CCCCCCCCCCCCCC[C@@H](O)C(=O)N[C@@H](CO)[C@H](O)[C@H](O)CCCC/C=C\CCCCCCCCCCC(C)C [Compound 2, (2S,3S,4R,9Z)-2-[(2R)-2-hydroxyhexadecanoylamino]-21-methyl-9-docosen-1,3,4-triol] | > 50 µM | > 50 µM | > 50 µM | 48.7 ± 2.4 µM | – | 68% | – | –
3 | CCCCCCCCCCCCCCC[C@@H](O)C(=O)N[C@@H](CO)[C@H](O)[C@H](O)CCCC/C=C\CCCCCCCCCCC(C)C [Compound 3, (2S,3S,4R,9Z)-2-[(2R)-2-hydroxyheptadecanoylamino]-21-methyl-9-docosen-1,3,4-triol] | > 50 µM | > 50 µM | > 50 µM | 49.4 ± 1.6 µM | – | 48% | – | –
4 | CCCCCCC/C=C/C(C)=C/CC/C=C/[C@@H](O)[C@H](CO[C@@H]1O[C@H](CO)[C@@H](O)[C@H](O)[C@H]1O)NC(=O)[C@H](O)CCCCCCCCCCCCCCCCCCCC [Compound 5, ophidiacerebroside C] | > 50 µM | > 50 µM | > 50 µM | 48.7 ± 1.8 µM | – | 54% | strong cytotoxic activity | moderate cytotoxic activity
5 | CCCCCCC/C=C/C(C)=C/CC/C=C/[C@@H](O)[C@H](CO[C@@H]1O[C@H](CO)[C@@H](O)[C@H](O)[C@H]1O)NC(=O)[C@H](O)CCCCCCCCCCCCCCCCCCCCC [Compound 6, ophidiacerebroside D] | > 50 µM | > 50 µM | > 50 µM | 40.5 ± 0.5 µM | – | 68% | strong cytotoxic activity | moderate cytotoxic activity
6 | CCCCCCCCCCCCCCCCCCCC[C@@H](O)C(=O)N[C@@H](CO[C@@H]1O[C@H](CO)[C@@H](O)[C@H](O)[C@H]1O)[C@H](O)[C@H](O)CCCCCCCCCC(C)CC (some centres unmarked) [Compound 7, CE-3-2] | > 50 µM | > 50 µM | > 50 µM | > 50 µM | slight cytotoxic activity | 44% | – | –
7 | CCCCCCCCCCCCCCCCCCCCCC[C@@H](O)C(=O)N[C@@H](CO[C@@H]1O[C@H](CO)[C@@H](O)[C@H](O)[C@H]1O)[C@H](O)[C@H](O)CCCCCCCCCC(C)CC (stereo partly drawn) [Compound 9, (2S,3S,4R)-1-O-(β-D-glucopyranosyl)-2-[(2R)-2-hydroxytetracosanoylamino]-14-methylhexadecan-3,4-diol] | > 50 µM | > 50 µM | > 50 µM | > 50 µM | slight cytotoxic activity | 50% | – | –
8 | COc1cccc2c1C(=O)c1c(O)c3c(c(O)c1C2=O)C[C@@](O)(C(=O)CO)C[C@@H]3O[C@H]1C[C@H](N)[C@H](O)[C@H](C)O1 [Doxorubicin, reference compound] | 35.7 ± 1.2 µM | 21.8 ± 3.2 µM | 40 ± 5 µM | 22.3 ± 0.2 µM | – | 70% | – | –
